Molecules are shown by their SMILES. Active and inactive are the calls of the source. The rule behind the calls is not given here.

For the assay, the target named is Influenza A virus M2 proton channel (A/TW/4845/1999 H1N1). Briefly: NMR binding screen, influenza A virus M2 proton channel, Kd (AID 1549). The settings on record: M2 protein.
For `COc1ccc2c(c1)OC/C(=C\c1ccc(OC)c(O)c1)C2=O`, the Kd is > 4 mM (inactive).

As for `NC1=NC(=O)C(Cc2cccc([N+](=O)[O-])c2)S1` (stereo not given), the Kd is > 4 mM (inactive).

Turning to `O=C(Nc1cccc(C(F)(F)F)c1)c1cccnc1`, the Kd is > 4 mM (inactive).

On to `O=C(O)c1ccc(Nc2nncc(=O)[nH]2)cc1`, for which the Kd was > 4 mM (inactive).

As for `CSc1nc(C)cc(Oc2ccc(=O)n(C)n2)n1`, the Kd is > 4 mM (inactive).

Consider `C=C1C([C@]2(C)C(CC(=O)OC)[C@@](C)(COC(C)=O)OC(=O)C[C@@H]2OC(C)=O)[C@@H](OC=O)[C@H](OC(=O)C(OC(C)=O)C(C)CC)[C@@]2(C)[C@H](c3ccoc3)CC(=O)C12O` (stereo not given in full), for which the Kd was > 4 mM (inactive).

Consider `NC(=O)c1ccc(NC(=O)c2cccnc2)cc1`, for which the Kd was > 4 mM (inactive).

Regarding `Cc1nc2ccccc2c(=O)n1/N=C/c1ccco1`, the Kd was > 4 mM (inactive).

`NC(=O)C1CCN(C(=S)Nc2ccccc2)CC1`: the Kd was > 4 mM (inactive).

As for `COC(=O)C[C@H]1C(C)(C)C(=O)[C@@H]2CC3C4=CC(=O)O[C@@H](c5ccoc5)[C@]4(C)CCC3C1(C)C2=O` (stereo not given in full), the Kd was > 4 mM (inactive).

With `Nc1cccc(NC(=O)c2ccco2)c1`, the Kd was > 4 mM (inactive).

Regarding `c1ccc(-n2cnnc2)nc1`, the Kd is > 4 mM (inactive).

Take `CC(=O)N1CCn2c3c(c(=O)c4cc(C)ccc42)CCC31` (stereo not given): the Kd was > 4 mM (inactive).

In the case of `COc1ccccc1N1C(=N)SCC1=O`, the Kd was > 4 mM (inactive).

`O=C(O)c1ccc(-n2ccnc2)cc1`: the Kd is > 4 mM (inactive).

`CCOc1cccc(C(=O)c2ccc(O)c(O)c2O)c1`: the Kd was > 4 mM (inactive).

In the case of `O=c1[nH]cc(NC(=S)N2CCOCC2)c(=O)[nH]1`, the Kd was > 4 mM (inactive).

For `COc1c2c(cc3occ(-c4ccc5c(c4)OCO5)c(=O)c13)OC(C)(C)C=C2`, the Kd was > 4 mM (inactive).

For the compound `C=C1CCC2C(CC2(C)C)C(=O)CCC1O` (stereo not given), the Kd is > 4 mM (inactive).

Turning to `O=C(NCc1ccco1)c1ccc(=O)[nH]c1`, the Kd is > 4 mM (inactive).

As for `CP(C)(=O)c1cccc(C(=O)O)c1`, the Kd was > 4 mM (inactive).

Regarding `Cn1nnc2cc(C(=O)Nc3cccnc3)ccc21`, the Kd is > 4 mM (inactive).

On to `CC1(C)C2CC(=O)[C@]3(C)C(CC[C@@]4(C)[C@H](c5ccoc5)OC(=O)[C@H]5O[C@]543)[C@@]2(C)C=C[C@@H]1O` (stereo not given in full), for which the Kd was > 4 mM (inactive).

Consider `CCc1ccc2oc(-c3cc(N)cc(C)c3O)nc2c1`, for which the Kd is > 4 mM (inactive).

On to `Cc1cc(C)n(CC(=O)O)n1`, for which the Kd is > 4 mM (inactive).

Turning to `O=C(c1nc2ccccc2s1)N1CCSCC1`, the Kd was > 4 mM (inactive).

For the compound `CC(C)NC(=S)N1CCN(S(C)(=O)=O)CC1`, the Kd is > 4 mM (inactive).

On to `CC1(C)Cc2cccc(C(=O)O)c2O1`, for which the Kd is > 4 mM (inactive).

`Cc1sc2nc(NCCO)[nH]c(=O)c2c1C`: the Kd was > 4 mM (inactive).

On to `O=C(Nc1ccon1)c1csc2ccccc12`, for which the Kd is > 4 mM (inactive).

With `O=C(c1ccccc1)N1CCN(c2ccccc2F)CC1`, the Kd is > 4 mM (inactive).

In the case of `COc1cc(OC)c(OC)cc1C=O`, the Kd is > 4 mM (inactive).

Turning to `N#Cc1cnn(Cc2ccc(Cl)cc2)c1N`, the Kd was > 4 mM (inactive).

For the compound `O=c1c(O)c(-c2ccc(O)cc2O)oc2cc(O)cc(O)c12`, the Kd was > 4 mM (inactive).

As to `Cn1nc(C(=O)N2CCCC2)c2ccccc2c1=O`, the Kd was > 4 mM (inactive).

As for `Cc1ccc(Nc2nnns2)cc1C`, the Kd was > 4 mM (inactive).

With `CCOC(=O)C1CCN(c2ncnc3nc[nH]c23)CC1`, the Kd was > 4 mM (inactive).

Regarding `CC(C)(O)P(C)(=O)c1ccccc1` (stereo not given), the Kd is > 4 mM (inactive).

Regarding `NC(=O)c1ccccc1NC(=O)C1CCCO1` (stereo not given), the Kd is > 4 mM (inactive).

Turning to `CC(=O)Nc1ccc(N2C(=O)C=CC2=O)cc1C`, the Kd was > 4 mM (inactive).

`COC(=O)c1cc2ccccc2cn1`: the Kd is > 4 mM (inactive).

For `Nc1cccc(F)c1-c1ncon1`, the Kd is > 4 mM (inactive).

Take `CC(C)c1ccc2c(c1)CCC1C(C)(C(N)=O)CCCC21C` (stereo not given): the Kd was > 4 mM (inactive).

Consider `COc1cc(O)c2c(=O)cc(-c3ccc(OC)c(-c4c(O)cc(O)c5c(=O)cc(-c6ccc(O)cc6)oc45)c3)oc2c1`, for which the Kd is > 4 mM (inactive).

Turning to `CNC(=O)Cn1c(=O)n(C)c2ccccc21`, the Kd was > 4 mM (inactive).

Regarding `O=C(NCCCO)c1ccncc1`, the Kd is > 4 mM (inactive).

For `COc1cccc(-c2nc(-c3ccccn3)no2)c1OC`, the Kd was > 4 mM (inactive).

As for `Cn1nnc2c(Cl)ncnc21`, the Kd was > 4 mM (inactive).

In the case of `Nc1ccc(N2CCOCC2)c(Cl)c1`, the Kd is > 4 mM (inactive).

Consider `O=C(NC1CCS(=O)(=O)C1)C1CCCCC1` (stereo not given), for which the Kd is > 4 mM (inactive).

Take `NC(=O)c1cccc(Cl)n1`: the Kd was > 4 mM (inactive).

In the case of `CC(=O)NC(=S)Nc1ccccc1N1CCOCC1`, the Kd is > 4 mM (inactive).

For `C[C@H]1C(=O)CCC2[C@]3(C)CC[C@@]4(C)C5CC(C)(C)CC[C@]5(C)CC[C@]4(C)C3CC[C@@]21C` (stereo not given in full), the Kd was > 4 mM (inactive).

With `COc1ccc(-c2nnsc2N)cc1`, the Kd was > 4 mM (inactive).

For `NC(=O)c1ccsc1NC(=O)c1ccco1`, the Kd was > 4 mM (inactive).

As for `O=c1[nH]cc(CN2CCOCC2)c(=O)[nH]1`, the Kd is > 4 mM (inactive).

Consider `CC(=O)O[C@H]1C[C@@H](OC(C)=O)C(C)(C)C2C[C@@H](OC(C)=O)[C@@]3(C)C4=CC(=O)O[C@@H](c5ccoc5)[C@]4(C)CCC3[C@]21C` (stereo not given in full), for which the Kd is > 4 mM (inactive).

In the case of `Nc1cc(=O)[nH]c(=S)n1CCc1ccccc1`, the Kd is > 4 mM (inactive).

Regarding `O=c1ccc2cc(O)c(O)cc2o1`, the Kd is > 4 mM (inactive).

Regarding `Nc1nc2ncc(=O)[nH]c2c(=O)[nH]1`, the Kd was > 4 mM (inactive).

`Nc1ccc(CN2CCS(=O)(=O)CC2)cc1`: the Kd is > 4 mM (inactive).

As for `O=c1cc(O)n(-c2ccc(F)cc2)c(=S)[nH]1`, the Kd was > 4 mM (inactive).

`C=C1C(=O)OC2CC1C(OC(C)=O)C/C(C)=C/CC/C(C)=C/CC[C@]2(C)O` (stereo not given in full): the Kd is > 4 mM (inactive).

In the case of `Cc1cc(=O)c2ccccc2n1CC(N)=O`, the Kd was > 4 mM (inactive).

Take `NC12CC3CC(C1)CC(C(=O)O)(C3)C2`: the Kd is > 4 mM (inactive).

Take `C/C=C(/C)C(=O)O[C@H]1CC[C@@]2(C)[C@@H]3CC[C@H]4[C@]5(O)C[C@H](O)[C@@]6(O)[C@@H](CN7C[C@@H](C)CC[C@H]7[C@@]6(C)O)[C@]5(O)C[C@@]42OC13O`: the Kd was > 4 mM (inactive).

Regarding `Cn1ncc(N2CCOCC2)c(Cl)c1=O`, the Kd is > 4 mM (inactive).

Regarding `COc1ccc2[nH]cc(CCN(C)C)c2c1`, the Kd is > 4 mM (inactive).

As to `COc1cc([C@H]2Oc3cc([C@H]4Oc5cc(O)cc(O)c5C(=O)[C@@H]4O)ccc3O[C@@H]2CO)ccc1O`, the Kd is > 4 mM (inactive).

Regarding `O=C(O)c1cnc2sc3ccccc3n2c1=O`, the Kd is > 4 mM (inactive).

In the case of `O=C1CCC(=O)N1c1ccc(F)cc1`, the Kd is > 4 mM (inactive).

For `COc1ccc(NC(=O)c2ccc[n+]([O-])c2)cc1`, the Kd was > 4 mM (inactive).

In the case of `O=P(O)(Cc1ccccc1)c1ccccc1`, the Kd was > 4 mM (inactive).

In the case of `COc1ccccc1NC(=O)c1ccc(Br)o1`, the Kd is > 4 mM (inactive).

In the case of `NC(=O)CSc1nc2ncnc(N)c2[nH]1`, the Kd was > 4 mM (inactive).

As to `Fc1ccc(Br)cc1/C=N/n1cnnc1`, the Kd is > 4 mM (inactive).

On to `[O-][n+]1onc2c1CCc1c-2nc(-c2ccccc2)n1O`, for which the Kd is > 4 mM (inactive).

Consider `CN1CCN(C(=O)c2ccco2)CC1`, for which the Kd is > 4 mM (inactive).

Consider `CC(=O)O[C@H]1C[C@@]2(C)[C@@H](C[C@@H](O)C3[C@]2(C)CC[C@H]2[C@H](C)[C@H](O)CC[C@]32C)/C1=C(/CCC=C(C)C)C(=O)O` (stereo not given in full), for which the Kd was > 4 mM (inactive).

Turning to `O=C1C2CC=CCC2C(=O)N1c1ccccc1` (stereo not given), the Kd is > 4 mM (inactive).

`NC1=NN(c2ccccc2)C(=O)C1`: the Kd was > 4 mM (inactive).

For `O=c1c(-c2cccs2)[n+]([O-])c2ccccc2n1O`, the Kd is > 4 mM (inactive).

Take `COCc1cc(Cl)nc(-c2csc(C)n2)n1`: the Kd was > 4 mM (inactive).

On to `O=C(NCCO)c1cc2ccccc2cc1O`, for which the Kd is > 4 mM (inactive).

Regarding `NCc1nc2ccccc2s1`, the Kd is > 4 mM (inactive).

In the case of `O=S(=O)(c1ccc(F)c(Cl)c1)N1CCCC1`, the Kd was > 4 mM (inactive).

As for `CCOC(=O)c1nc2ccccc2c(=O)n1N`, the Kd was > 4 mM (inactive).

`Cn1c(=O)[nH]c(=O)c2nsnc21`: the Kd was > 4 mM (inactive).

As for `Cn1c(CO)nc2ccccc21`, the Kd is > 4 mM (inactive).

Take `O=C1NC(=O)C2C3C=CC(O3)C12` (stereo not given): the Kd was > 4 mM (inactive).

On to `O=[N+]([O-])c1cccc(CN2CCC(O)CC2)c1`, for which the Kd is > 4 mM (inactive).

As for `O=C1CS/C(=N/N=C/c2cccs2)N1`, the Kd is > 4 mM (inactive).

On to `Nc1ccccc1-c1nc2ccccc2[nH]1`, for which the Kd was > 4 mM (inactive).

For the compound `O=C(O)c1cccc(CSc2ncccn2)c1`, the Kd was > 4 mM (inactive).

Take `Cc1cc(=O)[nH]c(N2CCN(Cc3ccccc3)CC2)n1`: the Kd is > 4 mM (inactive).

Consider `CN(C)C(=O)CSc1nc2ccccc2c(=O)[nH]1`, for which the Kd is > 4 mM (inactive).

As for `O=C(O)c1cccnc1`, the Kd was > 4 mM (inactive).

`O=S1(=O)CCC(N2CCCCC2)C1` (stereo not given): the Kd is > 4 mM (inactive).

On to `Cc1sc2nc(C)n(NC(N)=O)c(=O)c2c1C`, for which the Kd is > 4 mM (inactive).

Consider `O=C(O)c1cccnc1N1CCCC1`, for which the Kd is > 4 mM (inactive).

A word on the Kd: it is the concentration at which binding is half-saturated.

Source of the values: PubChem BioAssay AID1549 (Sanford-Burnham Center for Chemical Genomics, 2009).
